Assay results published in patent publication US9833497B2, “Human originated EGF domain proteins and use of the same” (CHENGDU SOURCEBIO LIMITED-LIABILITY COMPANY, priority 2013, dated 2017).

Experiments:
Assay type in all cases: cell-based
[1] = tested on: Proteus vulgaris; assay: MIC against Gram-negative bacteria: Proteus vulgaris
Method in brief: (§1)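 Growth inhibition by human EGF domain proteins was scored in LB liquid culture seeded at 5×10^5 CFU/mL. Protein was applied as a two-fold dilution series in triplicate, with shaking incubation at 37° C; MIC is the lowest concentration giving no growth.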

[2] = tested on: E. coli DH5α; assay: Antibacterial activity: MIC and growth curve against E. coli DH5α in 96-well plate; settings: minimal inhibitory concentration against E. coli DH5α; 96-well plate, 5×10^5 CFU/mL, 37° C., judged after 8 h
Method in brief: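 MIC taken as lowest protein level with no bacterial growth, tracked by A600 every 30 min during 37 °C, 175 rpm culture. Two-fold protein series 50-12.5 μg/mL final, triplicate wells, against 5×10^5 CFU/mL of LB-washed mid-log cells.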

[3] = tested on: Proteus mirabilis; assay: MIC against Gram-negative bacteria: Proteus mirabilis
Method in brief: as §1

[4] = tested on: Aeromonas hydrophila; assay: MIC against Gram-negative bacteria: Aeromonas hydrophila
Method in brief: as §1

[5] = tested on: Enterobacter cloacae; assay: MIC against Gram-negative bacteria: Enterobacter cloacae
Method in brief: as §1

[6] = tested on: Serratia marcescens; assay: MIC against Gram-negative bacteria: Serratia marcescens
Method in brief: as §1

[7] = tested on: Citrobacter diversus; assay: MIC against Gram-negative bacteria: Citrobacter diversus
Method in brief: as §1

[8] = tested on: Pseudomonas aeruginosa; assay: MIC against Gram-negative bacteria: Pseudomonas aeruginosa
Method in brief: as §1

[9] = tested on: Moraxella catarrhalis; assay: MIC against Gram-negative bacteria: Moraxella catarrhalis
Method in brief: as §1

[10] = tested on: Klebsiella pneumonia; assay: MIC against Gram-negative bacteria: Klebsiella pneumonia
Method in brief: as §1

[11] = tested on: E. coli BL21; assay: MIC against Gram-negative bacteria: E. coli BL21; settings: for MIC (μg/mL) E. coli BL21 / MIC: E. coli BL21
Method in brief: as §1

[12] = P. vulgaris, 10 h cultivation at 37° C., 5×10^5 CFU/mL
[13] = P. mirabilis, 10 h cultivation at 37° C., 5×10^5 CFU/mL
[14] = A. hydrophila, 10 h cultivation at 37° C., 5×10^5 CFU/mL
[15] = E. cloacae, 10 h cultivation at 37° C., 5×10^5 CFU/mL
[16] = S. marcescens, 10 h cultivation at 37° C., 5×10^5 CFU/mL
[17] = C. diversus, 10 h cultivation at 37° C., 5×10^5 CFU/mL
[18] = P. aeruginosa, 10 h cultivation at 37° C., 5×10^5 CFU/mL
[19] = M. catarrhalis, 10 h cultivation at 37° C., 5×10^5 CFU/mL
[20] = K. pneumonia, 10 h cultivation at 37° C., 5×10^5 CFU/mL
[21] = 10 h cultivation at 37° C., 5×10^5 CFU/mL
[22] = 96-well plate, 5×10^5 CFU/mL, 37° C., 10 h

Substance: PRT780 (EYSSCSRHPCQNGGTCINGRTSFTCACRHPFTGDNCT; listed as Homo sapiens)
- MIC (μg/mL) P. vulgaris [1, 12]: 50 µg/mL
- MIC [2]: 12.5 µg/mL
- MIC (μg/mL) P. mirabilis [3, 13]: 25 µg/mL
- MIC (μg/mL) A. hydrophila [4, 14]: 50 µg/mL
- MIC (μg/mL) E. cloacae [5, 15]: 12.5 µg/mL
- MIC (μg/mL) S. marcescens [6, 16]: 12.5 µg/mL
- MIC (μg/mL) C. diversus [7, 17]: 25 µg/mL
- MIC (μg/mL) P. aeruginosa [8, 18]: 12.5 µg/mL
- MIC (μg/mL) M. catarrhalis [9, 19]: 12.5 µg/mL
- MIC (μg/mL) K. pneumonia [10, 20]: 50 µg/mL
- MIC (μg/mL) E. coli BL21 [11, 21]: 50 µg/mL

Substance: PRT466 (RHTACLSSPCLNGGTCHLIVATGTTVCACPPGFAGRLCN; listed as Homo sapiens)
- MIC against P. vulgaris [1, 22]: 50 µg/mL
- MIC [2]: 12.5 µg/mL
- MIC against P. mirabilis [3, 22]: 12.5 µg/mL
- MIC against A. hydrophila [4, 22]: 50 µg/mL
- MIC against E. cloacae [5, 22]: 12.5 µg/mL
- MIC against S. marcescens [6, 22]: 12.5 µg/mL
- MIC against C. diversus [7, 22]: 12.5 µg/mL
- MIC against P. aeruginosa [8, 22]: 12.5 µg/mL
- MIC against M. catarrhalis [9, 22]: 50 µg/mL
- MIC against K. pneumonia [10, 22]: 50 µg/mL
- MIC against E. coli BL21 [11, 22]: 50 µg/mL

Substance: PRT803 (HGKGCQLPCQCRHGASCDPRAGECLCAPGYTGVYCE; listed as Homo sapiens)
- MIC (μg/mL) P. vulgaris [1, 12]: 12.5 µg/mL
- MIC [2]: 50 µg/mL
- MIC (μg/mL) P. mirabilis [3, 13]: 50 µg/mL
- MIC (μg/mL) A. hydrophila [4, 14]: 25 µg/mL
- MIC (μg/mL) E. cloacae [5, 15]: 50 µg/mL
- MIC (μg/mL) S. marcescens [6, 16]: 50 µg/mL
- MIC (μg/mL) C. diversus [7, 17]: 25 µg/mL
- MIC (μg/mL) P. aeruginosa [8, 18]: 12.5 µg/mL
- MIC (μg/mL) M. catarrhalis [9, 19]: 100 µg/mL
- MIC (μg/mL) K. pneumonia [10, 20]: 25 µg/mL
- MIC (μg/mL) E. coli BL21 [11, 21]: 50 µg/mL

Substance: PRT427 (DVNECETGVHRCGEGQVCHNLPGSYRCDCKAGFQRDAFGRGCI; listed as Homo sapiens)
- MIC [1, 12]: 12.5 µg/mL
- MIC [2]: 25 µg/mL
- MIC [3, 13]: 25 µg/mL
- MIC [4, 14]: 12.5 µg/mL
- MIC [5, 15]: 25 µg/mL
- MIC [6, 16]: 25 µg/mL
- MIC [7, 17]: 25 µg/mL
- MIC [8, 18]: 25 µg/mL
- MIC [9, 19]: 50 µg/mL
- MIC [10, 20]: 50 µg/mL
- MIC [11, 21]: 12.5 µg/mL

Substance: PRT418 (DINECSSSPCSQECANVYGSYQCYCRRGYQLSDVDGVTCE; listed as Homo sapiens)
- MIC [1, 12]: 25 µg/mL
- MIC [2]: 12.5 µg/mL
- MIC [3, 13]: 12.5 µg/mL
- MIC [4, 14]: 25 µg/mL
- MIC [5, 15]: 12.5 µg/mL
- MIC [6, 16]: 50 µg/mL
- MIC [7, 17]: 50 µg/mL
- MIC [8, 18]: 12.5 µg/mL
- MIC [9, 19]: 25 µg/mL
- MIC [10, 20]: 50 µg/mL
- MIC [11, 21]: 12.5 µg/mL

Substance: PRT79 (LPDPCDSNPCPANSYCSNDWDSYSCSCDPGYYGDNC; listed as Homo sapiens)
- MIC (μg/mL) P. vulgaris ([1]; Proteus vulgaris, 96-well plate, 5×10^5 CFU/mL, 37° C., 10 h): 12.5 µg/mL
- MIC [2]: 50 µg/mL
- MIC (μg/mL) P. mirabilis ([3]; Proteus mirabilis, 96-well plate, 5×10^5 CFU/mL, 37° C., 10 h): 50 µg/mL
- MIC (μg/mL) A. hydrophila ([4]; Aeromonas hydrophila, 96-well plate, 5×10^5 CFU/mL, 37° C., 10 h): 25 µg/mL
- MIC (μg/mL) E. cloacae ([5]; Enterobacter cloacae, 96-well plate, 5×10^5 CFU/mL, 37° C., 10 h): 12.5 µg/mL
- MIC (μg/mL) S. marcescens ([6]; Serratia marcescens, 96-well plate, 5×10^5 CFU/mL, 37° C., 10 h): 50 µg/mL
- MIC (μg/mL) C. diversus ([7]; Citrobacter diversus, 96-well plate, 5×10^5 CFU/mL, 37° C., 10 h): 12.5 µg/mL
- MIC (μg/mL) P. aeruginosa ([8]; Pseudomonas aeruginosa, 96-well plate, 5×10^5 CFU/mL, 37° C., 10 h): 12.5 µg/mL
- MIC (μg/mL) M. catarrhalis ([9]; Moraxella catarrhalis, 96-well plate, 5×10^5 CFU/mL, 37° C., 10 h): 12.5 µg/mL
- MIC (μg/mL) K. pneumonia ([10]; Klebsiella pneumonia, 96-well plate, 5×10^5 CFU/mL, 37° C., 10 h): 25 µg/mL
- MIC (μg/mL) E. coli BL21 [11, 22]: 25 µg/mL

Substance: PRT971 (DINDCDPNPCLNGGSCQDGVGSFSCSCLPGFAGPRCA; listed as Homo sapiens)
- MIC ([1]; P. vulgaris, 10 h cultivation at 37° C.): 12.5 µg/mL
- MIC [2]: 50 µg/mL
- MIC ([3]; P. mirabilis, 10 h cultivation at 37° C.): 50 µg/mL
- MIC ([4]; A. hydrophila, 10 h cultivation at 37° C.): 50 µg/mL
- MIC ([5]; E. cloacae, 10 h cultivation at 37° C.): 25 µg/mL
- MIC ([6]; S. marcescens, 10 h cultivation at 37° C.): 25 µg/mL
- MIC ([7]; C. diversus, 10 h cultivation at 37° C.): 12.5 µg/mL
- MIC ([8]; P. aeruginosa, 10 h cultivation at 37° C.): 50 µg/mL
- MIC ([9]; M. catarrhalis, 10 h cultivation at 37° C.): 25 µg/mL
- MIC ([10]; K. pneumonia, 10 h cultivation at 37° C.): 100 µg/mL
- MIC ([11]; 10 h cultivation at 37° C.): 12.5 µg/mL
